Experimental findings from PubChem BioAssay AID1159565 (GlaxoSmithKline (GSK), 2015) are described below.

Bounds are passed on as bounds.

The test system of one test is T. cruzi-infected H9C2 cardiomyocytes, high-content imaging. As to the kind of experiment: intracellular T. cruzi amastigote inhibition, imaging, H9C2 host cardiomyocytes, host toxicity (AID 1159565).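 Also: infected cells incubated 72 h after plating.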 To be noted: measured here: H9C2 host cell toxicity.
With `CC(C(=O)Nc1ccc(Br)cc1)N1CCN(c2ccc([N+](=O)[O-])cc2)CC1` (stereo not drawn), the IC50 is > 50 µM. On to `CNC(=O)Oc1ccc(C(=O)NCc2ccccc2)cc1OC(=O)NC`, for which the half-inhibitory concentration (IC50) was > 50 µM. Turning to `O=C(COc1ncnc2cc([N+](=O)[O-])ccc12)NC(=O)NC1CCCCC1`, the IC50 was > 50 µM. Still for that read-out and setting: under `Cc1cc(C)n(-c2nc(NC(C)(C)C)nc(N3CCOCC3)n2)n1` stands 1.3 µM. The same measure, in the same setting: next, `O=C(NCc1ccncc1)c1ccccc1N1CCCN(C(=O)Cc2ccc(F)c(F)c2)CC1`: > 50 µM. The same measure, in the same setting: next, `O=C(Nc1nc(-c2ccc(S(=O)(=O)N3CCOCC3)cc2)cs1)c1ccc([N+](=O)[O-])cc1`: > 50 µM; `COc1ncc(-c2ccc3nccc(-c4ccncc4)c3c2)cc1NS(C)(=O)=O`: 5 µM. As to `Cc1cc2nc(N3CC[C@H]3C(N)=O)nc(Nc3cc(C4CC4)[nH]n3)c2s1`, the IC50 turned out to be 0.5 µM. Same read-out and setting: under `O=C(CN(c1cccc(C(F)(F)F)c1)S(=O)(=O)c1ccc(Cl)cc1)NCc1ccc(F)c(F)c1` stands > 50 µM. For the compound `Cc1nc2c(-c3cccs3)c(C)nn2c(NCCO)c1C`, the IC50 was > 50 µM.

`COc1cc(Cl)c(C)cc1NC(=O)c1ccc([N+](=O)[O-])s1` showed an IC50 of 2.5 µM. In the case of `Cc1nc(N2CC(C)OC(C)C2)sc1C(=O)Nc1ccc2c(c1)OCO2` (stereo not drawn), the IC50 was > 50 µM. Same read-out and setting: under `NC(=O)c1ccc(-c2cccc(OCCN3CCN(C4CCCCC4)CC3)c2)cc1` stands > 50 µM; under `Cc1c(CNC(=O)c2ccc(Cn3cc(Cl)c([N+](=O)[O-])n3)cc2)cnn1C`, > 50 µM. `CC(=O)NCCNc1cc(-c2ccnc(Nc3cccc(Cl)c3)n2)ccn1`: the IC50 amounted to 0.4 µM. Still for that read-out and setting: next, `c1ccc(CCNCc2cncc3nc(-c4cnccn4)n(C4CCCCC4)c23)cc1`: > 50 µM. On the same count and under the same terms, next, `CNc1c(C(N)=O)c(-c2ccc3scnc3c2)nn1CC(F)(F)F`: > 50 µM; `CS(=O)(=O)c1cccc(CNC(=O)c2cncc(N3CCN(c4ccc(F)cc4)CC3)c2)c1`: > 50 µM. Same read-out and setting: under `O=c1[nH]cnc2c([C@@H]3O[C@H](CO)[C@@H](O)[C@H]3O)[nH]nc12` stands > 50 µM; under `CCOc1ccc(OCC(=O)N2c3ccccc3CC2C(=O)NC)cc1` (stereo not drawn), > 50 µM; under `COc1ccc(NS(=O)(=O)c2cc(NC(=O)c3ccc([N+](=O)[O-])s3)ccc2OC)cc1`, > 50 µM. Consider `c1cc(-c2ncc(-c3ccn[nH]3)s2)ccn1`, for which the IC50 was > 50 µM. On the same count and under the same terms, under `COc1ccc(C)cc1-c1csc(NC(=O)C(C)n2ccnc2)n1` (stereo not drawn) stands > 50 µM; under `c1ccc(Nc2nc(-c3ccccn3)cc(N3CCOCC3)n2)cc1`, 0.63 µM; under `O=C(NC(c1ccc(Cl)cc1)c1cnccn1)C1CCN(C(=O)Nc2cccc(C(F)(F)F)c2)CC1` (stereo not drawn), > 50 µM. Same read-out and setting: next, `COc1cnc2ccc(=O)n(CCN3CCC(NC/C=C/c4cc(F)ccc4F)CC3)c2c1`: 16 µM; `Clc1ccc(Sc2cnccc2N2CCOCC2)cc1`: > 50 µM. The same measure, in the same setting: under `O=C(NC1CCN(C2Cc3ccc(NS(=O)(=O)c4cc(F)cc(F)c4)cc3C2)CC1)C1CC1` (stereo not drawn) stands > 50 µM.

Staying with this test, now noted: measured here: amastigotes per cell.
Compound `CCCC(=O)N(Cc1ccccn1)c1nc2ccccc2s1` had an IC50 of 0.079 µM.

Turning to `O=C1CN(Cc2ccco2)C2CS(=O)(=O)CC2N1c1ccc(Cl)cc1` (stereo not drawn), the IC50 was > 50 µM.

In the case of `C[C@@H](Oc1cc(-n2cnc3cc(N)ccc32)sc1C(N)=O)c1ccccc1Cl`, the IC50 came to 5 µM.

`C=CCOCC1Cn2nc([N+](=O)[O-])nc2O1` (stereo not drawn) came in with an IC50 of 0.63 µM. Compound `O=C(NCC1CCCCC1)c1cc(=O)c2ccccc2o1` registered an IC50 of 0.5 µM.

Regarding `NC(N)=Nc1nc(-c2ccc(NC(N)=NCCN3CCCC3)cc2)cs1`, the IC50 was > 50 µM. The same measure, in the same setting: under `O=C(Cc1ccccc1)Nc1ccccc1C(=O)Nc1nccs1` stands > 50 µM. Still for that read-out and setting: next, `O=C(NCCc1ccn(-c2ccccc2)n1)C1CCCCC1`: 1 µM; `O=C(NCCc1csc(-c2ccc(F)cc2)n1)c1ccco1`: 1.3 µM. The same measure, in the same setting: next, `O=C(CCCn1cnc([N+](=O)[O-])n1)Nc1cccc(Cl)c1`: 0.16 µM. As for `COc1cccc(S(=O)(=O)Nc2ccc3c(c2)CC(N2CCC(NC(=O)C4CC4)CC2)C3)c1` (stereo not drawn), the IC50 was 32 µM.

The compound `Cc1occc1C(=O)Nc1ccccc1C(=O)Nc1nccs1` showed an IC50 of 32 µM. On the same count and under the same terms, under `CC1=NN(C(=O)CCn2cnc([N+](=O)[O-])n2)C(O)(C(F)(F)F)C1` (stereo not drawn) stands 1.3 µM; under `COc1ccc(S(=O)(=O)NCc2ccc(-c3ccc(CN(C)CCO)cc3)cc2)cc1`, 1.3 µM. Still for that read-out and setting: under `O=C(Nc1ccccc1C(=O)Nc1ccccn1)c1ccco1` stands > 50 µM. Still for that read-out and setting: under `CC1CCCCN1C(=O)NCCc1coc(-c2ccc(F)cc2)n1` (stereo not drawn) stands 0.32 µM; under `COc1ccc(S(=O)(=O)Nc2ccc(C(=O)Nc3nc(-c4ccccn4)cs3)cc2)cc1`, 0.63 µM. Regarding `CN(Cc1nc2ccccc2s1)C(=O)C=Cc1cc2ccccc2o1`, the IC50 amounted to 1 µM. Compound `COc1ccc(OC)c2c(=O)c(Cc3ccccc3)c(C)[nH]c12` came in with an IC50 of 0.13 µM. Same read-out and setting: under `O=C(NC1C(=O)N(c2ccccc2)C1c1cccnc1)c1ccc(Cl)s1` (stereo not drawn) stands 0.04 µM; under `CCC(=O)N1N=C(c2ccc3c(c2)CCCC3)Sc2c1ncn2C(=O)CC`, 13 µM; under `CCOc1cc(NCCCN2CCN(C)CC2)c2ncccc2c1`, 1 µM. The same measure, in the same setting: under `O=C(NNC(=O)c1ccccn1)c1ccc(-c2ccccc2)cc1` stands 1.3 µM. Still for that read-out and setting: under `COc1ccc(OC)c(NC(=O)c2ccc([N+](=O)[O-])o2)c1` stands 7.9 µM; under `Cc1c(Nc2cc(C3CC3)[nH]n2)ccc(C#N)c1Cl`, 16 µM. In the case of `CN(C)S(=O)(=O)c1ccc(Cl)c(C(=O)Nc2nc(-c3ccccn3)cs2)c1`, the 50% inhibitory concentration (IC50) is 1.3 µM. For the compound `O=C(NCCc1csc(-c2cccc(F)c2)n1)c1ccco1`, the 50% inhibitory concentration (IC50) turned out to be 1.3 µM. As for `CC(C(=O)Nc1ccc(Br)cc1)N1CCN(c2ccc([N+](=O)[O-])cc2)CC1` (stereo not drawn), the IC50 was 3.2 µM. Still for that read-out and setting: under `CNC(=O)Oc1ccc(C(=O)NCc2ccccc2)cc1OC(=O)NC` stands 40 µM; under `O=C(COc1ncnc2cc([N+](=O)[O-])ccc12)NC(=O)NC1CCCCC1`, 0.5 µM.

As for `Cc1cc(C)n(-c2nc(NC(C)(C)C)nc(N3CCOCC3)n2)n1`, the concentration for half-maximal inhibition (IC50) is 3.2 µM. Same read-out and setting: next, `O=C(NCc1ccncc1)c1ccccc1N1CCCN(C(=O)Cc2ccc(F)c(F)c2)CC1`: 0.079 µM. As to `O=C(Nc1nc(-c2ccc(S(=O)(=O)N3CCOCC3)cc2)cs1)c1ccc([N+](=O)[O-])cc1`, the IC50 amounted to 0.5 µM. Same read-out and setting: next, `COc1ncc(-c2ccc3nccc(-c4ccncc4)c3c2)cc1NS(C)(=O)=O`: 13 µM. `Cc1cc2nc(N3CC[C@H]3C(N)=O)nc(Nc3cc(C4CC4)[nH]n3)c2s1` registered an IC50 of 4 µM. `O=C(CN(c1cccc(C(F)(F)F)c1)S(=O)(=O)c1ccc(Cl)cc1)NCc1ccc(F)c(F)c1` gave an IC50 of 0.5 µM.

`Cc1nc2c(-c3cccs3)c(C)nn2c(NCCO)c1C`: the IC50 stood at 16 µM. Still for that read-out and setting: next, `COc1cc(Cl)c(C)cc1NC(=O)c1ccc([N+](=O)[O-])s1`: 0.5 µM. Still for that read-out and setting: next, `Cc1nc(N2CC(C)OC(C)C2)sc1C(=O)Nc1ccc2c(c1)OCO2` (stereo not drawn): 2.5 µM; `NC(=O)c1ccc(-c2cccc(OCCN3CCN(C4CCCCC4)CC3)c2)cc1`: 0.79 µM; `Cc1c(CNC(=O)c2ccc(Cn3cc(Cl)c([N+](=O)[O-])n3)cc2)cnn1C`: 0.79 µM. The same measure, in the same setting: under `CC(=O)NCCNc1cc(-c2ccnc(Nc3cccc(Cl)c3)n2)ccn1` stands 0.16 µM; under `c1ccc(CCNCc2cncc3nc(-c4cnccn4)n(C4CCCCC4)c23)cc1`, 0.13 µM.

`CNc1c(C(N)=O)c(-c2ccc3scnc3c2)nn1CC(F)(F)F`: the IC50 came out at 0.16 µM. On the same count and under the same terms, next, `CS(=O)(=O)c1cccc(CNC(=O)c2cncc(N3CCN(c4ccc(F)cc4)CC3)c2)c1`: 0.25 µM; `O=c1[nH]cnc2c([C@@H]3O[C@H](CO)[C@@H](O)[C@H]3O)[nH]nc12`: 0.32 µM.

Regarding `CCOc1ccc(OCC(=O)N2c3ccccc3CC2C(=O)NC)cc1` (stereo not drawn), the IC50 was > 50 µM. Still for that read-out and setting: next, `COc1ccc(NS(=O)(=O)c2cc(NC(=O)c3ccc([N+](=O)[O-])s3)ccc2OC)cc1`: 0.079 µM; `c1cc(-c2ncc(-c3ccn[nH]3)s2)ccn1`: 0.25 µM; `COc1ccc(C)cc1-c1csc(NC(=O)C(C)n2ccnc2)n1` (stereo not drawn): 0.1 µM.

In the case of `c1ccc(Nc2nc(-c3ccccn3)cc(N3CCOCC3)n2)cc1`, the 50% inhibitory concentration (IC50) was found to be 25 µM.

With `O=C(NC(c1ccc(Cl)cc1)c1cnccn1)C1CCN(C(=O)Nc2cccc(C(F)(F)F)c2)CC1` (stereo not drawn), the IC50 came out at 0.5 µM. `COc1cnc2ccc(=O)n(CCN3CCC(NC/C=C/c4cc(F)ccc4F)CC3)c2c1`: the IC50 was determined as 0.01 µM. The same measure, in the same setting: under `Clc1ccc(Sc2cnccc2N2CCOCC2)cc1` stands 0.1 µM; under `O=C(NC1CCN(C2Cc3ccc(NS(=O)(=O)c4cc(F)cc(F)c4)cc3C2)CC1)C1CC1` (stereo not drawn), > 50 µM.
